# Values of other authors, collected in publication PMC2363746, “Phase I dose-escalation and pharmacokinetic study of a novel folate analogue AG2034” (British Journal of Cancer, 2001).
smiles,measurement,setting,value
"Nc1nc2c(c(=O)[nH]1)C[C@@H](CCc1ccc(C(=O)N[C@@H](CCC(=O)O)C(=O)O)cc1)CN2 [lometrexol, (6R)-5,10-dideazatetrahydrofolate]",Unexpected toxicity in phase I studies,in vivo,myelosuppression and mucositis
same,Antitumour activity in phase I studies,"ref Ray et al, 1993",objective antitumour activity
